Source: patent US20120328536A1, “Taste Improving Substances” (QUEST INTERNATIONAL SERVICES B.V., priority 2006, published 2012)

Key:
[1] = Tasting of 3% alcohol in water by a professional panel; settings: 50 ppm in 3% alcohol in water
Description: (§1) Two solutions of 3% alcohol in water were prepared. To one sample (sample A), 50 ppm of N-(2-hydroxyethyl) 5-hydroxyhexanoyl amide (as prepared in example 1) was added. The other sample was used as the reference sample. Both samples were tasted by a professional panel.

[2] = Tasting of Odol mouthwater by a professional panel; settings: 50 ppm in Odol mouthwater
Description: Commercially available Odol mouthwater (GlaxoSmithKline) was obtained from a local pharmacy and 4 solutions were prepared.
To a first sample (sample A), 50 ppm of N-(2-hydroxyethyl) 5-hydroxyhexanoyl amide (as prepared in example 1) was added. Samples A was tasted by a professional panel and compared with the mouthwater without added N-(2-hydroxyethyl) 5-hydroxyhexanoyl amide.

[3] = Tasting of menthol fondant by a professional panel; settings: 50 ppm in fondant with 2500 ppm menthol
Description: Two samples of fondant were prepared by mixing 65 Fondacreme (ex Belgosuc NV Belgium) with 35% sugar syrup (67° Brix). 2500 Ppm menthol was added as a 50% solution in propylene glycol. To a first sample (sample A), 50 ppm of N-(2-hydroxyethyl) 5-hydroxyhexanoyl amide (as prepared in example 1) was added. The second sample was the reference sample. The Samples were tasted by a professional panel.

[4] = Tasting of NaCl/MSG/pepper oleoresin solution by a professional panel; settings: 50 ppm in 0.6% NaCl, 0.03% MSG, 4 ppm pepper oleoresin
Description: as §1, with “0.6% NaCl and 0.03% MSG and 4 ppm pepper oleoresin (ex Warner Jenkinson, St Louis, USA)” for “3% alcohol in water”, “reference.” for “reference sample.”

[5] = Tasting of toothpaste by a professional panel; settings: 50 ppm in commercial toothpaste
Description: Commercially available toothpaste was obtained from a local pharmacy and 4 samples of paste were prepared.
To a first sample (sample A), 50 ppm of N-(2-hydroxyethyl) 5-hydroxyhexanoyl amide (as prepared in example 1) was added and homogenized. Samples A was tasted by a professional panel and compared with the toothpaste without added N-(2-hydroxyethyl) 5-hydroxyhexanoyl amide.

Substance: N-(2-hydroxyethyl) 5-hydroxyhexanoyl amide
- alcohol impression compared to the reference sample [1]: alcohol-boosting effect
- ethanol water mixture that the sample tasted like [1]: 5-6%
- cooling in the oral cavity [2]: more aggressive cooling in the whole oral cavity
- initial cooling and mouth-coating [2]: more initial cooling and more mouth-coating
- overall impact compared with mouthwater without the amide [2]: stronger overall impact
- cooling compared with the reference sample [3]: more intense cooling than the reference sample
- onset and location of the cooling effect [3]: its effect is immediate and through the whole oral cavity
- after-taste compared to the reference sample [4]: more a hot, tingling after-taste
- initial hotness compared to the reference sample [4]: initial hotness was increased
- cooling in the oral cavity [5]: more aggressive cooling in the whole oral cavity
- initial cooling and mouth-coating [5]: more initial cooling and more mouth-coating
- overall impact compared with the reference sample [5]: stronger overall impact
